Here are results for 13 compounds from patent US20240299559A1, “COMPOUNDS THAT MEDIATE PROTEIN DEGRADATION AND METHODS OF USE THEREOF” (Monte Rosa Therapeutics, Inc., priority 2021, published 2024).

The target of one experiment is T1, CDK2 (Homo sapiens, UniProt P24941).
T1 construct: HEK293 clonal lines with CRISPR KI HiBiT tag on CDK2 proteins; host or cells: HEK293 clonal line with CRISPR knock-in HiBiT on CDK2, stably expressing LgBiT
Briefly: CDK2 HiBiT assay (degradation, Dmax). It counts as cell-based. To be noted: HEK293 clonal lines with CRISPR KI HiBiT tag on CDK2, stably expressing LgBiT; 24 hours incubation. In short, it runs like this: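 HEK293 with endogenous HiBiT-tagged CDK2 and stable LgBiT, 5000 cells/well, treated 24 h at 37 °C (compound source plate 30 μM). Luminescence after HiBiT lysis reagent 15 min, normalized to plate controls; 3-parameter logistic fit (Hill slope 1) gives EC50 and Dmax.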
Background: The HiBiT peptide binds its large partner to form an active luciferase.

For the next experiment, the target named is CRBN-DDB1 (Homo sapiens, UniProt Q96SW2). Briefly: Compound binding to CRBN by HTRF assay. The following applies: CRBN-DDB1 2.5 nM, Cy5-Thalidomide 100 nM probe; Ki from geometric mean of IC50 by Cheng-Prustoff transformation. The method, boiled down:
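HTRF competition used 2.5 nM His-tagged CRBN-DDB1, anti-His terbium cryptate and 100 nM Cy5-thalidomide probe in 20 mM HEPES, 20 mM NaCl, 0.2 mM TCEP, 0.2 mM EDTA, 0.005% Tween20. Compounds ran as 10-point 1:3 series for 30 min at ambient temperature, with the 665/620 nm signal normalized to lenalidomide and DMSO controls. Ki came from geometric-mean IC50 by Cheng-Prusoff.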
For orientation: Time-resolved FRET reads energy transfer from a long-lived donor to a nearby acceptor.

CRBN-DDB1, sequence (Q96SW2 whole entry): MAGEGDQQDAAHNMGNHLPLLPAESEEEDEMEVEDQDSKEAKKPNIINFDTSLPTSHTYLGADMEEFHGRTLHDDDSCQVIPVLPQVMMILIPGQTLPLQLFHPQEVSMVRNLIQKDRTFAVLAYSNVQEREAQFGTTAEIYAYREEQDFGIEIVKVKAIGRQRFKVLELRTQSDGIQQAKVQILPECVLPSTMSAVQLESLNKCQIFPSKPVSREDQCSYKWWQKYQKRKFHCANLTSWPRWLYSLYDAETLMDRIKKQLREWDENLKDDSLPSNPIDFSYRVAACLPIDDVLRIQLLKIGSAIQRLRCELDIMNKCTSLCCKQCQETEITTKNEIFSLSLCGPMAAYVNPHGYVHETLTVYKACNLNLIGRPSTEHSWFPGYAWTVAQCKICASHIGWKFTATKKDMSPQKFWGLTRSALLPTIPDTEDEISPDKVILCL
CRBN-DDB1, sequence (Q16531 whole entry partner): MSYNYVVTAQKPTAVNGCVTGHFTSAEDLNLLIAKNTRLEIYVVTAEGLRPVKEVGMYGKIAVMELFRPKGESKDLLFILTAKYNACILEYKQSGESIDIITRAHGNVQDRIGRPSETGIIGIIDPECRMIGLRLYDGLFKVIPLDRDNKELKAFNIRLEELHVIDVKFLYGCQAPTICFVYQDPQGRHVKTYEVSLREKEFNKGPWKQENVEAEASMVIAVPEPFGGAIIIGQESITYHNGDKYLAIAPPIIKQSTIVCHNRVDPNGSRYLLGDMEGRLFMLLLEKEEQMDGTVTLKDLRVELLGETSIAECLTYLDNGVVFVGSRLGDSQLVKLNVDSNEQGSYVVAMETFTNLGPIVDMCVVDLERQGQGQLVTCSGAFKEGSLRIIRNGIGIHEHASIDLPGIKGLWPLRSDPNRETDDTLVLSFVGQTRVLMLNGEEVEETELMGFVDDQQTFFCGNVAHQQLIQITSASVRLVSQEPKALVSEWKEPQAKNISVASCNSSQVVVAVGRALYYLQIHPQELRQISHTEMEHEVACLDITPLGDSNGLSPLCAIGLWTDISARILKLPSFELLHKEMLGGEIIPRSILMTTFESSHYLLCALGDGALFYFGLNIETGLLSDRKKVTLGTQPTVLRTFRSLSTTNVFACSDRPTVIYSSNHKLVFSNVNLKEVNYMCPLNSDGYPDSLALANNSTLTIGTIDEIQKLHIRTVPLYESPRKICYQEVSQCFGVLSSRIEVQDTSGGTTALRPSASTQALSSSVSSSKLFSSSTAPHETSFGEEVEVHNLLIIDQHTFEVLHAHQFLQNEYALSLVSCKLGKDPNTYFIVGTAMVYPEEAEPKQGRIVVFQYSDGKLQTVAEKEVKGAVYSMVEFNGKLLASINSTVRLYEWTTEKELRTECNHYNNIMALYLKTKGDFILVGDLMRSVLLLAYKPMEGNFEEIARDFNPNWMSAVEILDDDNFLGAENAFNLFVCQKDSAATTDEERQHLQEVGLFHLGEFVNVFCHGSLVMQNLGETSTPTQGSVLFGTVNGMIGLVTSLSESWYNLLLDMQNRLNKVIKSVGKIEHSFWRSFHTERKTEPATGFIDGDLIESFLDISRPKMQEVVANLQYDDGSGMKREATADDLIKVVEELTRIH

In turn, `O=C1CCC(N2Cc3ccc(CNC(=O)OCCc4ccccc4)cc3C2=O)C(=O)N1` (centres unmarked) [Compound 22, 2-phenylethyl N-{[2-(2,6-dioxopiperidin-3-yl)-3-oxo-2,3-dihydro-1H-isoindol-5-yl]methyl}carbamate] displayed a maximal degradation (Dmax) at CDK2 of 10 to 50%. In addition, the Ki at CRBN-DDB1 was ≤ 100 nM.

`O=C1CCC(N2Cc3ccc(CNC(=O)OCc4cccc(-c5ccc(C(F)(F)F)cc5)c4)cc3C2=O)C(=O)N1` (centres unmarked) [Compound 9, (4′-(trifluoromethyl)-[1,1′-biphenyl]-3-yl)methyl((2-(2,6-dioxopiperidin-3-yl)-3-oxoisoindolin-5-yl)methyl)carbamate] yielded a Dmax on CDK2 of 50 to 80%. This compound showed an inhibition constant (Ki) on CRBN-DDB1 of 100 to 1000 nM.

At CDK2, `O=C1CCC(N2Cc3ccc(CNC(=O)OCc4ccc(OC(F)F)cc4)cc3C2=O)C(=O)N1` (centres unmarked) [Compound 33, [4-(difluoromethoxy)phenyl]methyl N-{[2-(2,6-dioxopiperidin-3-yl)-3-oxo-2,3-dihydro-1H-isoindol-5-yl]methyl}carbamate] gave a Dmax of 10 to 50%. The inhibitory constant (Ki) at CRBN-DDB1 was ≤ 100 nM.

The compound `CCC(COC(=O)NCc1ccc2c(c1)C(=O)N(C1CCC(=O)NC1=O)C2)c1ccccc1` (centres unmarked) [Compound 67, 2-phenylbutyl N-{[2-(2,6-dioxopiperidin-3-yl)-3-oxo-2,3-dihydro-1H-isoindol-5-yl]methyl}carbamate] yielded a Dmax at CDK2 of 10 to 50%. In addition, the Ki at CRBN-DDB1 lay within 100 to 1000 nM.

For the compound `O=C1CCC(N2Cc3c(Cl)cc(CNc4nnc(-c5ccc(OC(F)(F)F)cc5)o4)cc3C2=O)C(=O)N1` (centres unmarked) [Compound 73, 3-(4-chloro-1-oxo-6-(((5-(4-(trifluoromethoxy)phenyl)-1,3,4-oxadiazol-2-yl)amino)methyl)isoindolin-2-yl)piperidine-2,6-dione], the Dmax at CDK2 was in the range of 50 to 80%. For the same compound, at CRBN-DDB1, the Ki is ≤ 100 nM.

For `O=C1CCC(N2Cc3ccc(CNC(=O)OCc4ccc(OCC(F)(F)F)cc4)cc3C2=O)C(=O)N1` (centres unmarked) [Compound 62, [4-(2,2,2-trifluoroethoxy)phenyl]methyl N-{[2-(2,6-dioxopiperidin-3-yl)-3-oxo-2,3-dihydro-1H-isoindol-5-yl]methyl}carbamate], on CDK2, the Dmax was in the range of 10 to 50%. The Ki on CRBN-DDB1 is ≤ 100 nM.

`O=C1CCC(N2Cc3ccc(CNC(=O)OCc4ccc(N5CCCC5=O)cc4)cc3C2=O)C(=O)N1` (centres unmarked) [Compound 17, 4-(2-oxopyrrolidin-1-yl)benzyl ((2-(2,6-dioxopiperidin-3-yl)-3-oxoisoindolin-5-yl)methyl)carbamate] showed a Dmax on CDK2 of 10 to 50%. For the same compound, the Ki at CRBN-DDB1 fell in the range of 100 to 1000 nM.

With `CSc1cccc(COC(=O)NCc2ccc3c(c2)C(=O)N(C2CCC(=O)NC2=O)C3)c1` (centres unmarked) [Compound 35, [3-(methylsulfanyl)phenyl]methyl N-{[2-(2,6-dioxopiperidin-3-yl)-3-oxo-2,3-dihydro-1H-isoindol-5-yl]methyl}carbamate], the maximal degradation (Dmax) at CDK2 was 10 to 50%. Moreover, on CRBN-DDB1, the inhibition constant Ki was ≤ 100 nM.

`N#Cc1cc(CNc2nnc(-c3ccc(OC(F)(F)F)cc3)o2)cc2c1CN(C1CCC(=O)NC1=O)C2=O` (centres unmarked) [Compound 74, 2-(2,6-dioxopiperidin-3-yl)-1-oxo-6-(((5-(4-(trifluoromethoxy)phenyl)-1,3,4-oxadiazol-2-yl)amino)methyl)isoindoline-4-carbonitrile]: the Dmax on CDK2 lay within 10 to 50%. Also, at CRBN-DDB1, the Ki lay within 100 to 1000 nM.

For `O=C1CCC(N2Cc3ccc(CNC(=O)OCc4ccc(OC(F)(F)F)cc4)cc3C2=O)C(=O)N1` (centres unmarked) [Compound 69, 4-(trifluoromethoxy)benzyl ((2-(2,6-dioxopiperidin-3-yl)-3-oxoisoindolin-5-yl)methyl)carbamate], the greatest degradation seen (Dmax) on CDK2 was in the range of 10 to 50%. Further, the Ki on CRBN-DDB1 was 100 to 1000 nM.

At CDK2, `CC(C)c1ccc(COC(=O)NCc2ccc3c(c2)C(=O)N(C2CCC(=O)NC2=O)C3)cc1` (centres unmarked) [Compound 60, [4-(propan-2-yl)phenyl]methyl N-{[2-(2,6-dioxopiperidin-3-yl)-3-oxo-2,3-dihydro-1H-isoindol-5-yl]methyl}carbamate] came in with a maximal degradation (Dmax) of 10 to 50%. Also, on CRBN-DDB1, the Ki is ≤ 100 nM.

For `O=C1CCC(N2Cc3ccc(CNC(=O)OCc4ccc(C5CCCC5)cc4)cc3C2=O)C(=O)N1` (centres unmarked) [Compound 37, (4-cyclopentylphenyl)methyl N-{[2-(2,6-dioxopiperidin-3-yl)-3-oxo-2,3-dihydro-1H-isoindol-5-yl]methyl}carbamate], the maximal degradation (Dmax) at CDK2 fell in the range of 10 to 50%. Also, the inhibition constant Ki on CRBN-DDB1 is ≤ 100 nM.

On to `O=C1CCC(N2Cc3ccc(CNC(=O)OCc4ccc(CN5CCOCC5)cc4)cc3C2=O)C(=O)N1` (centres unmarked) [Compound 55, {4-[(morpholin-4-yl)methyl]phenyl}methyl N-{[2-(2,6-dioxopiperidin-3-yl)-3-oxo-2,3-dihydro-1H-isoindol-5-yl]methyl}carbamate], for which, at CDK2, the maximal degradation (Dmax) is ≤ 10%. Further, the inhibition constant (Ki) at CRBN-DDB1 is ≤ 100 nM.

The term Dmax denotes the largest share of the target that was removed. A word on the Ki: it is a dissociation constant, usually derived from enzyme kinetics or from competition with a known ligand. A high value points to weaker binding.
